Source: US4436904A, “Cephalosporins” (Kanto Ishi Pharmaceutical Co., Ltd., priority 1981, dated 1984)
Values after ≈ are worked out from the molar mass of the structure shown. Where two headings read alike, the source gives them in different places.

Experiments:
Assay in all cases: Minimum inhibitory concentration (MIC), standard method of the Japanese Chemotherapeutic Association
[1] = system: Staphylococcus aureus 209-P; assay type: cell-based; conditions: read-out: Minimum Inhibitory Concentration (MIC)
[2] = system: Staphylococcus aureus TERAJIMA; assay type: cell-based; conditions: read-out: Minimum Inhibitory Concentration (MIC)
[3] = system: Staphylococcus epidermidis ATCC12228; assay type: cell-based
[4] = system: Bacillus subtilis ATCC 6633; assay type: cell-based
Escherichia coli N I H J = assay type: cell-based; conditions: read-out: Minimum Inhibitory Concentration (MIC)
Escherichia coli MEGAWA = assay type: cell-based; conditions: for MIC: Escherichia coli
Proteus vulgaris = assay type: cell-based; conditions: read-out: Minimum Inhibitory Concentration (MIC)
Proteus morganii IID 602 = assay type: cell-based; conditions: Morganella morganii
[5] = system: Pseudomonas aeruginosa IFO 13739; assay type: cell-based
[6] = system: Pseudomonas aeruginosa IFO 3080; assay type: cell-based
[7] = system: Pseudomonas pudita IID 5121; assay type: cell-based
[8] = system: Klebsiella pneumoniae IID 865; assay type: cell-based
[9] = system: Salmonella enteritidis IID 604; assay type: cell-based; conditions: Salmonella enterica, read-out: Minimum Inhibitory Concentration (MIC)
[10] = system: Salmonella typhimurium IID 1000; assay type: cell-based; conditions: Salmonella enterica, read-out: Minimum Inhibitory Concentration (MIC)
Shigella boydii IID 627 = assay type: cell-based; conditions: IID627, Inoculum size: 10^6 cells/ml
Shigella sonnei IID 969 = assay type: cell-based; conditions: IID969, Inoculum size: 10^6 cells/ml
[11] = system: Enterobacter aerogenes IID 5206; assay type: cell-based; conditions: Klebsiella aerogenes
[12] = system: Enterobacter cloacae IID 977; assay type: cell-based
[13] = system: Serratia marcenscens IFO 12648; assay type: cell-based
[14] = system: Salmonella paratyphi IID 605; conditions: Salmonella enterica, IID605|PARATYPHI, read-out: Minimum Inhibitory Concentration (MIC)
[15] = system: Shigella dysenteriae IID 633; conditions: IID633, read-out: Minimum Inhibitory Concentration (MIC)
[16] = ATCC12228, Inoculum size: 10^6 cells/ml, weight concentration, read-out: Minimum Inhibitory Concentration (MIC)
[17] = ATCC6633, Inoculum size: 10^6 cells/ml, weight concentration, read-out: Minimum Inhibitory Concentration (MIC)
[18] = Inoculum size: 10^6 cells/ml, weight concentration
[19] = Inoculum size: 10^6 cells/ml, weight concentration, read-out: Minimum Inhibitory Concentration (MIC)
[20] = IID602, Inoculum size: 10^6 cells/ml, weight concentration, read-out: Minimum Inhibitory Concentration (MIC)
[21] = IFO13739, Inoculum size: 10^6 cells/ml, weight concentration, read-out: Minimum Inhibitory Concentration (MIC)
[22] = IFO3080, read-out: Minimum Inhibitory Concentration (MIC)
[23] = IID5121, Inoculum size: 10^6 cells/ml, weight concentration, read-out: Minimum Inhibitory Concentration (MIC)
[24] = IID865, Inoculum size: 10^6 cells/ml, weight concentration, read-out: Minimum Inhibitory Concentration (MIC)
[25] = IID5206, read-out: Minimum Inhibitory Concentration (MIC)
[26] = IID977, Inoculum size: 10^6 cells/ml, weight concentration, read-out: Minimum Inhibitory Concentration (MIC)
[27] = IFO12648, read-out: Minimum Inhibitory Concentration (MIC)
[28] = IID5206, Inoculum size: 10^6 cells/ml, weight concentration, read-out: Minimum Inhibitory Concentration (MIC)
[29] = ATCC6633, read-out: Minimum Inhibitory Concentration (MIC)
[30] = Inoculum size: 10^6 cells/ml, potency concentration
[31] = IID602, read-out: Minimum Inhibitory Concentration (MIC)
[32] = IFO13739, read-out: Minimum Inhibitory Concentration (MIC)
[33] = IID977, read-out: Minimum Inhibitory Concentration (MIC)
[34] = Inoculum size: 10^6 cells/ml, potency concentration, read-out: Minimum Inhibitory Concentration (MIC)
[35] = IID5121, Inoculum size: 10^6 cells/ml, potency concentration, read-out: Minimum Inhibitory Concentration (MIC)
[36] = IFO12648, Inoculum size: 10^6 cells/ml, potency concentration, read-out: Minimum Inhibitory Concentration (MIC)

Structure (SMILES)	MIC [2] [µg/mL]	MIC [3, 16] [µg/mL]	MIC [4, 17] [µg/mL]	MIC (Escherichia coli N I H J; [18]) [µg/mL]	MIC (Escherichia coli MEGAWA; [19]) [µg/mL]	MIC [5, 21] [µg/mL]	MIC [6, 22] [µg/mL]	MIC [7, 23] [µg/mL]	MIC [8, 24] [µg/mL]	MIC [9] [µg/mL]	MIC [10] [µg/mL]	MIC (Shigella boydii IID 627; weight concentration) [µg/mL]	MIC (Shigella sonnei IID 969; weight concentration) [µg/mL]	MIC [11, 25] [µg/mL]	MIC [12, 26] [µg/mL]	MIC [13, 27] [µg/mL]	MIC [14] [µg/mL]	MIC [15] [µg/mL]	MIC (Proteus vulgaris) [µg/mL]	MIC (Proteus morganii IID 602; [31]) [µg/mL]	also measured
Cn1nnnc1SCC1=C(C(=O)O)N2C(=O)C(NC(=O)[C@H](NC(=O)N3CCN(N=C4SCCS4)C3=O)c3ccc(O)cc3)C2SC1 (single isomer, unassigned) [KI-6269, sodium 7-{D-(-)-α-[(2-oxo-3-(1,3-dithiolan-2-imino)-imidazolidin-1-yl)-carboxamido]-4-hydroxyphenylacetamido}-3-[(1-methyl-1,2,3,4-tetrazol-5-yl)-thiomethyl]-3-cephem-4-carboxylate]	1.56	0.39	0.78	< 0.1	6.25	6.25	1.56	25	0.2	1.56	1.56	< 0.1	0.2	1.56	3.13	1.56	1.56	< 0.1			MIC [1]: 1.56 µg/mL; MIC (Proteus vulgaris; [18]): 0.78 µg/mL; MIC (Proteus morganii IID 602; [20]): 3.13 µg/mL
Cn1nnnc1SCC1=C(C(=O)O)N2C(=O)C(NC(=O)[C@H](NC(=O)N3CCN(N=C4SCCS4)C3=O)c3ccccc3)C2SC1 (single isomer, unassigned) [KI-6248, sodium 7-{D-(-)-α-[(2-oxo-3-(1,3-dithiolan-2-imino)-imidazolidin-1-yl)-carboxamido]-phenylacetamido}-3-[(1-methyl-1,2,3,4-tetrazol-5-yl)-thiomethyl]-3-cephem-4-carboxylate]		0.39	0.78	< 0.1	6.25	12.5	1.56	25	< 0.1			0.39	0.78		3.13		1.56	0.2	1.56		MIC [1, 18]: 0.78 µg/mL; MIC [2, 18]: 0.78 µg/mL; MIC (Proteus morganii IID 602; [20]): 3.13 µg/mL; MIC [9, 18]: 3.13 µg/mL; MIC [10, 18]: 0.78 µg/mL; MIC [11, 28]: 3.13 µg/mL; MIC ([13]; IFO12648, Inoculum size: 10^6 cells/ml, weight concentration, read-out: Minimum Inhibitory Concentration (MIC)): 3.13 µg/mL
CC1=C(C(=O)O)N2C(=O)[C@@H](NC(=O)[C@H](N)c3ccccc3)[C@H]2SC1 [CEX, cephalexin, reference compound]							> 100			6.25 (≈ 18 µM)	3.13 (≈ 9.01 µM)			> 100		> 100	12.5 (≈ 36 µM)	3.13 (≈ 9.01 µM)	12.5 (≈ 36 µM)	> 100	MIC [4, 29]: 0.78 µg/mL (≈ 2.25 µM); MIC (Escherichia coli N I H J): 3.13 µg/mL (≈ 9.01 µM); MIC (Escherichia coli MEGAWA; read-out: Minimum Inhibitory Concentration (MIC), Inoculum size: 10^6 cells/ml, potency concentration): > 100 µg/mL; Minimum Inhibitory Concentration (MIC) (Escherichia coli MEGAWA; [30]): < 100 µg/mL; MIC [5, 32]: > 100 µg/mL; MIC ([7]; IID5121, read-out: Minimum Inhibitory Concentration (MIC)): > 100 µg/mL; MIC (Shigella boydii IID 627; potency concentration): 3.13 µg/mL (≈ 9.01 µM); MIC (Shigella sonnei IID 969; potency concentration): 6.25 µg/mL (≈ 18 µM); MIC [12, 33]: > 100 µg/mL
CC(=O)OCC1=C(C(=O)O)N2C(=O)[C@@H](NC(=O)Cc3cccs3)[C@H]2SC1 [CET, cephalothin, reference compound]	0.2 (≈ 0.504 µM)						> 100			1.56 (≈ 3.93 µM)	0.78 (≈ 1.97 µM)			> 100			3.13 (≈ 7.9 µM)	0.78 (≈ 1.97 µM)	6.25 (≈ 15.8 µM)	> 100	MIC [1]: 0.2 µg/mL (≈ 0.504 µM); MIC ([3]; ATCC12228, read-out: Minimum Inhibitory Concentration (MIC)): < 0.1 µg/mL; MIC [4, 29]: < 0.1 µg/mL; MIC (Escherichia coli N I H J; [30]): 0.39 µg/mL (≈ 0.984 µM); MIC (Escherichia coli MEGAWA; [34]): > 100 µg/mL; Minimum Inhibitory Concentration (MIC) (Escherichia coli MEGAWA; [30]): < 100 µg/mL; MIC [5, 32]: > 100 µg/mL; MIC [7, 35]: > 100 µg/mL; MIC ([8]; IID865, read-out: Minimum Inhibitory Concentration (MIC)): 0.78 µg/mL (≈ 1.97 µM); MIC (Shigella boydii IID 627; potency concentration): 0.78 µg/mL (≈ 1.97 µM); MIC (Shigella sonnei IID 969; potency concentration): 6.25 µg/mL (≈ 15.8 µM); MIC [12, 33]: > 100 µg/mL; MIC [13, 36]: > 100 µg/mL
CC(=O)OCC1=C(C(=O)O)N2C(=O)C(NC(=O)[C@H](NC(=O)N3CCN(N=C4SCCS4)C3=O)c3ccccc3)C2SC1 (single isomer, unassigned) [KI-6203, sodium 7-{D-(-)-α-[(2-oxo-3-(1,3-dithiolan-2-imino)-imidazolidin-1-yl)-carboxamido]-phenylacetamido}-3-acetoxymethyl-3-cephem-4-carboxylate]	1.56	0.39	0.78	< 0.1	25	12.5		50	0.39	6.25		1.56	1.56		12.5	6.25	6.25	0.78	6.25	6.25	MIC [1, 18]: 0.78 µg/mL; MIC ([6]; IFO3080, Inoculum size: 10^6 cells/ml, weight concentration, read-out: Minimum Inhibitory Concentration (MIC)): 3.13 µg/mL; MIC [10, 18]: 3.13 µg/mL; MIC [11, 28]: 12.5 µg/mL
CN(C)CCn1nnnc1SCC1=C(C(=O)O)N2C(=O)[C@@H](NC(=O)Cc3csc(N)n3)[C@H]2SC1 [CTM, cefotiam, reference compound]																	< 0.1	< 0.1			MIC [1, 30]: 0.39 µg/mL (≈ 0.742 µM); MIC [2, 30]: 0.78 µg/mL (≈ 1.48 µM); MIC ([3]; ATCC12228, Inoculum size: 10^6 cells/ml, potency concentration, read-out: Minimum Inhibitory Concentration (MIC)): 0.39 µg/mL (≈ 0.742 µM); MIC ([4]; ATCC6633, Inoculum size: 10^6 cells/ml, potency concentration, read-out: Minimum Inhibitory Concentration (MIC)): 0.39 µg/mL (≈ 0.742 µM); MIC (Escherichia coli N I H J; [30]): < 0.1 µg/mL; MIC (Escherichia coli MEGAWA; [34]): 6.25 µg/mL (≈ 11.9 µM); MIC (Proteus vulgaris; [30]): 0.39 µg/mL (≈ 0.742 µM); MIC (Proteus morganii IID 602; IID602, Inoculum size: 10^6 cells/ml, potency concentration, read-out: Minimum Inhibitory Concentration (MIC)): 0.39 µg/mL (≈ 0.742 µM); MIC ([5]; IFO13739, Inoculum size: 10^6 cells/ml, potency concentration, read-out: Minimum Inhibitory Concentration (MIC)): > 100 µg/mL; MIC ([6]; IFO3080, Inoculum size: 10^6 cells/ml, potency concentration, read-out: Minimum Inhibitory Concentration (MIC)): > 100 µg/mL; MIC [7, 35]: > 100 µg/mL; MIC ([8]; IID865, Inoculum size: 10^6 cells/ml, potency concentration, read-out: Minimum Inhibitory Concentration (MIC)): < 0.1 µg/mL; MIC [9, 30]: 0.2 µg/mL (≈ 0.38 µM); MIC [10, 30]: < 0.1 µg/mL; MIC (Shigella boydii IID 627; potency concentration): < 0.1 µg/mL; MIC (Shigella sonnei IID 969; potency concentration): < 0.1 µg/mL; MIC ([11]; IID5206, Inoculum size: 10^6 cells/ml, potency concentration, read-out: Minimum Inhibitory Concentration (MIC)): 1.56 µg/mL (≈ 2.97 µM); MIC ([12]; IID977, Inoculum size: 10^6 cells/ml, potency concentration, read-out: Minimum Inhibitory Concentration (MIC)): 3.13 µg/mL (≈ 5.95 µM); MIC [13, 36]: 25 µg/mL (≈ 47.6 µM)
Cc1nnc(SCC2=C(C(=O)O)N3C(=O)C(NC(=O)[C@H](NC(=O)N4CCN(N=C5SCCS5)C4=O)c4ccccc4)C3SC2)s1 (single isomer, unassigned) [TO-180, 7-{D-(-)-α-[(2-oxo-3-(1,3-dithiolan-2-imino)-imidazolidin-1-yl)-carboxamido]-phenylacetoamide}-3-[5-methyl-(1,3,4-thiadiazol-2-yl)-thiomethyl]-3-cephem-4-carboxylic acid]		0.39 (≈ 0.552 µM)	0.78 (≈ 1.1 µM)	< 0.1	6.25 (≈ 8.84 µM)	6.25 (≈ 8.84 µM)	1.56 (≈ 2.21 µM)	25 (≈ 35.4 µM)	0.39 (≈ 0.552 µM)	1.56 (≈ 2.21 µM)	1.56 (≈ 2.21 µM)	0.39 (≈ 0.552 µM)	0.39 (≈ 0.552 µM)		3.13 (≈ 4.43 µM)	1.56 (≈ 2.21 µM)	1.56 (≈ 2.21 µM)	0.39 (≈ 0.552 µM)	1.56 (≈ 2.21 µM)	1.56 (≈ 2.21 µM)	MIC [1, 18]: 0.39 µg/mL (≈ 0.552 µM); MIC [2, 18]: 0.39 µg/mL (≈ 0.552 µM); MIC [11, 28]: 3.13 µg/mL (≈ 4.43 µM)
